Values of other authors in article PMC5666773, “Human Immunodeficiency Virus Proteins Mimic Human T Cell Receptors Inducing Cross-Reactive Antibodies” (International Journal of Molecular Sciences, 2017).
pKd: −log10 of the molar value.

Molecular target: naturally circulating anti-insulin
Settings: healthy human beings and cats; no clinical effect; read-out: naturally circulating anti-insulin binding

insulin
pKd: ~5.00
